Source: ChEMBL document CHEMBL1201862, “PubChem BioAssay data set” (2004)
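Five compound concentrations were applied to cells in 96-well plates for 48 hours; endpoints were derived by simple linear interpolation of the resulting dose-response curve. GI50 = concentration required for 50% inhibition of growth.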 Active and inactive are the calls of the source. Cut-off read from the data, not from the text of the source: active = GI50 up to about 1.1 µM and inactive = higher.

Columns and labels:
Test in all cases: NCI tumour cell line growth inhibition, 48 h
786-0 = test system: 786-0
A498 = test system: A498
A549 = test system: A549
ACHN = test system: ACHN
BT-549 = test system: BT-549
CAKI-1 = test system: CAKI-1
CCRF-CEM = test system: CCRF-CEM
COLO 205 = test system: COLO 205
DU-145 = test system: DU-145
EKVX = test system: EKVX
HCC 2998 = test system: HCC 2998
HCT-116 = test system: HCT-116
HCT-15 = test system: HCT-15
HL-60 = test system: HL-60
HOP-62 = test system: HOP-62
HOP-92 = test system: HOP-92
HT-29 = test system: HT-29
Hs-578T = test system: Hs-578T
IGROV-1 = test system: IGROV-1
K562 = test system: K562
KM12 = test system: KM12
LOX IMVI = test system: LOX IMVI
M14 = test system: M14
MCF7 = test system: MCF7
MDA-MB-231 = test system: MDA-MB-231
MDA-MB-435 = test system: MDA-MB-435
MDA-N = test system: MDA-N
MOLT-4 = test system: MOLT-4
Malme-3M = test system: Malme-3M
NCI-H226 = test system: NCI-H226
NCI-H23 = test system: NCI-H23
NCI-H460 = test system: NCI-H460
NCI-H522 = test system: NCI-H522
NCI/ADR-RES = test system: NCI/ADR-RES
OVCAR-3 = test system: OVCAR-3
OVCAR-4 = test system: OVCAR-4
OVCAR-5 = test system: OVCAR-5
OVCAR-8 = test system: OVCAR-8
PC-3 = test system: PC-3
RPMI-8226 = test system: RPMI-8226
RXF 393 = test system: RXF 393
SF-268 = test system: SF-268
SF-295 = test system: SF-295
SF-539 = test system: SF-539
SK-MEL-28 = test system: SK-MEL-28
SK-MEL-2 = test system: SK-MEL-2
SK-MEL-5 = test system: SK-MEL-5
SK-OV-3 = test system: SK-OV-3
SN12C = test system: SN12C
SNB-19 = test system: SNB-19
SNB-75 = test system: SNB-75
SR = test system: SR
SW-620 = test system: SW-620
T47D = test system: T47D
TK-10 = test system: TK-10
U-251 = test system: U-251
UACC-257 = test system: UACC-257
UACC-62 = test system: UACC-62
UO-31 = test system: UO-31

Compound: C=C1CC2(CC(c3ccccc3C)OC(c3ccccc3C)C2)OC1=O (stereo not drawn)
- GI50 (786-0): 1960 nM (inactive)
- GI50 (A498): 8990 nM (inactive)
- GI50 (A549): 8470 nM (inactive)
- GI50 (ACHN): 2360 nM (inactive)
- GI50 (BT-549): 1920 nM (inactive)
- GI50 (CAKI-1): 1870 nM (inactive)
- GI50 (CCRF-CEM): 2040 nM (inactive)
- GI50 (COLO 205): 1900 nM (inactive)
- GI50 (DU-145): 12100 nM (inactive)
- GI50 (EKVX): 16100 nM (inactive)
- GI50 (HCC 2998): 2250 nM (inactive)
- GI50 (HCT-116): 1820 nM (inactive)
- GI50 (HCT-15): 1950 nM
- GI50 (HL-60): 1600 nM (inactive)
- GI50 (HOP-62): 10700 nM (inactive)
- GI50 (HOP-92): 1760 nM (inactive)
- GI50 (HT-29): 1820 nM (inactive)
- GI50 (Hs-578T): 2240 nM (inactive)
- GI50 (IGROV-1): 1690 nM (inactive)
- GI50 (K562): 2150 nM (inactive)
- GI50 (KM12): 2180 nM (inactive)
- GI50 (LOX IMVI): 1580 nM (inactive)
- GI50 (M14): 1590 nM (inactive)
- GI50 (MCF7): 1850 nM (inactive)
- GI50 (MDA-MB-231): 1600 nM (inactive)
- GI50 (MDA-MB-435): 1710 nM (inactive)
- GI50 (MDA-N): 1750 nM (inactive)
- GI50 (MOLT-4): 2770 nM (inactive)
- GI50 (Malme-3M): 1710 nM (inactive)
- GI50 (NCI-H226): 7780 nM (inactive)
- GI50 (NCI-H23): 1960 nM (inactive)
- GI50 (NCI-H460): 2960 nM (inactive)
- GI50 (NCI-H522): 1730 nM (inactive)
- GI50 (NCI/ADR-RES): 3480 nM (inactive)
- GI50 (OVCAR-3): 1780 nM (inactive)
- GI50 (OVCAR-4): 2270 nM (inactive)
- GI50 (OVCAR-5): 13200 nM (inactive)
- GI50 (OVCAR-8): 2190 nM (inactive)
- GI50 (PC-3): 2210 nM (inactive)
- GI50 (RPMI-8226): 473 nM (active)
- GI50 (RXF 393): 2290 nM (inactive)
- GI50 (SF-268): 1830 nM (inactive)
- GI50 (SF-295): 15800 nM (inactive)
- GI50 (SF-539): 1620 nM (inactive)
- GI50 (SK-MEL-28): 1820 nM (inactive)
- GI50 (SK-MEL-2): 2000 nM (inactive)
- GI50 (SK-MEL-5): 1860 nM (inactive)
- GI50 (SK-OV-3): 11600 nM (inactive)
- GI50 (SN12C): 1970 nM (inactive)
- GI50 (SNB-19): 16300 nM (inactive)
- GI50 (SNB-75): 3230 nM (inactive)
- GI50 (SR): 2150 nM (inactive)
- GI50 (SW-620): 1730 nM (inactive)
- GI50 (T47D): 1720 nM (inactive)
- GI50 (TK-10): 1740 nM (inactive)
- GI50 (U-251): 12900 nM (inactive)
- GI50 (UACC-257): 1780 nM (inactive)
- GI50 (UACC-62): 1540 nM (inactive)
- GI50 (UO-31): 4080 nM (inactive)

Compound: COC(C(=O)C(O)C(C)O)C1CC2C=C3C=C(OC4CC(OC5CC(O)C(OC)C(C)O5)C(OC(C)=O)C(C)O4)C(C)C(O)=C3C(O)=C2C(=O)C1OC1CC(OC2CC(OC3CC(C)(O)C(OC(=O)C(C)C)C(C)O3)C(O)C(C)O2)C(O)C(C)O1 (stereo not drawn)
- GI50 (786-0): < 10 nM (active)
- GI50 (A498): < 10 nM (active)
- GI50 (A549): < 10 nM (active)
- GI50 (ACHN): < 10 nM (active)
- GI50 (BT-549): < 10 nM (active)
- GI50 (CAKI-1): < 10 nM (active)
- GI50 (CCRF-CEM): < 10 nM (active)
- GI50 (COLO 205): < 10 nM (active)
- GI50 (DU-145): < 10 nM (active)
- GI50 (EKVX): < 10 nM (active)
- GI50 (HCC 2998): < 10 nM (active)
- GI50 (HCT-116): < 10 nM (active)
- GI50 (HCT-15): < 10 nM
- GI50 (HL-60): < 10 nM (active)
- GI50 (HOP-62): < 10 nM (active)
- GI50 (HOP-92): < 10 nM (active)
- GI50 (HT-29): < 10 nM (active)
- GI50 (Hs-578T): < 10 nM (active)
- GI50 (IGROV-1): < 10 nM (active)
- GI50 (K562): < 10 nM (active)
- GI50 (KM12): < 10 nM (active)
- GI50 (LOX IMVI): < 10 nM (active)
- GI50 (M14): < 10 nM (active)
- GI50 (MCF7): < 10 nM (active)
- GI50 (MDA-MB-231): < 10 nM (active)
- GI50 (MDA-MB-435): < 10 nM (active)
- GI50 (MDA-N): < 10 nM (active)
- GI50 (MOLT-4): < 10 nM (active)
- GI50 (Malme-3M): < 10 nM (active)
- GI50 (NCI-H226): < 10 nM (active)
- GI50 (NCI-H23): < 10 nM (active)
- GI50 (NCI-H460): < 10 nM (active)
- GI50 (NCI-H522): < 10 nM (active)
- GI50 (NCI/ADR-RES): < 10 nM (active)
- GI50 (OVCAR-3): < 10 nM (active)
- GI50 (OVCAR-4): < 10 nM (active)
- GI50 (OVCAR-5): < 10 nM (active)
- GI50 (OVCAR-8): < 10 nM (active)
- GI50 (PC-3): < 10 nM (active)
- GI50 (RPMI-8226): < 10 nM (active)
- GI50 (RXF 393): < 10 nM (active)
- GI50 (SF-268): < 10 nM (active)
- GI50 (SF-295): < 10 nM (active)
- GI50 (SF-539): < 10 nM (active)
- GI50 (SK-MEL-28): < 10 nM (active)
- GI50 (SK-MEL-2): < 10 nM (active)
- GI50 (SK-MEL-5): < 10 nM (active)
- GI50 (SK-OV-3): < 10 nM (active)
- GI50 (SN12C): < 10 nM (active)
- GI50 (SNB-19): < 10 nM (active)
- GI50 (SNB-75): < 10 nM (active)
- GI50 (SR): < 10 nM (active)
- GI50 (SW-620): < 10 nM (active)
- GI50 (T47D): < 10 nM (active)
- GI50 (TK-10): < 10 nM (active)
- GI50 (U-251): < 10 nM (active)
- GI50 (UACC-257): < 10 nM (active)
- GI50 (UACC-62): < 10 nM (active)
- GI50 (UO-31): < 10 nM (active)
